{
  "source": "patent EP2578599A1",
  "about": "(LanthioPep B.V., priority 2011, dated 2013)",
  "key": {"trypsin": {"test_system": "trypsin", "experiment": "Proteolytic resistance: incubation of peptide conformations with trypsin", "format": "in vitro ADME", "experimental": "Production of peptide in Lactococcus lactis and characterization of the peptide were performed as described in Plat et al. (Polymers 2011, 3, 1282-1296). […] After inducing dehydration the peptide was harvested from the medium and characterized. After overnight incubation of the purified peptide containing a lysinoalanine at RT in 0.25 % ammonia (w/v) the sample was applied on a C18 column ([…] analytical C18 column 5 μm). Peaks were collected and analyzed by mass spectrometry. Different conformations of the peptide were incubated with trypsin and cpY (Figure 2)."}, "carboxypeptidase Y (cpY)": {"target": "carboxypeptidase Y (cpY) (Saccharomyces cerevisiae, UniProt P00729)", "sequence (P00729 112-532)": "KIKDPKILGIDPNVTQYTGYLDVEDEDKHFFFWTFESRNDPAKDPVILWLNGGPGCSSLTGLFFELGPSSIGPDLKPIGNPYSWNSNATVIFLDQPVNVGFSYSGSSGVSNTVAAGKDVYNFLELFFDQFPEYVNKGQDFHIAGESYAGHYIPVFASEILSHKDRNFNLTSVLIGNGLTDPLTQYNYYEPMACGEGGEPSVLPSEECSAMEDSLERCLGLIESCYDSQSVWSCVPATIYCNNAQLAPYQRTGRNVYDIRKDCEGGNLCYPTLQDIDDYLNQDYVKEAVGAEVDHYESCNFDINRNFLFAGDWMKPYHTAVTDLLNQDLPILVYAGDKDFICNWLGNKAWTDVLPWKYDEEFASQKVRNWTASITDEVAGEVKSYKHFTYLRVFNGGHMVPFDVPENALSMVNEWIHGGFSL", "experiment": "Proteolytic resistance: incubation of peptide conformations with carboxypeptidase Y", "format": "in vitro ADME", "conditions": "HPLC peaks of nisin leader - GLP-1 fragment (29-36) peptide treated with cpY", "experimental": "Production of peptide in Lactococcus lactis and characterization of the peptide were performed as described in Plat et al. (Polymers 2011, 3, 1282-1296).\nAfter overnight incubation of the purified peptide containing a lysinoalanine at RT in 0.25 % ammonia (w/v) the sample was applied on a C18 column (Alltech, alltima analytical C18 column 5 µm). Peaks were collected and analyzed by mass spectrometry. Different conformations of the peptide were incubated with trypsin and cpY (Figure 2)."}},
  "data": [
    {"substance": "nisin leader - I Dha W L V K G R [lysinoalanine-bridged GLP-1 peptide]", "values": [
      {"measurement": "protection against trypsin", "setting": "trypsin", "value": "resistant"},
      {"measurement": "protection against carboxypeptidase Y (cpY)", "setting": "carboxypeptidase Y (cpY)", "value": "resistant"}
    ]}
  ]
}
